These results are taken from ChEMBL document CHEMBL1147287, “Antitumor agents, 107. New cytotoxic 4-alkylamino analogues of 4'-demethyl-epipodophyllotoxin as inhibitors of human DNA topoisomerase II” (1989).

Assay [1] addresses DNA topoisomerase 2-alpha (Homo sapiens) (UniProt P11388). As to the kind of experiment: Inhibition of human DNA topoisomerase 2 assessed as bacteriophage P4 DNA unknotting at 100 uM after 30 mins by agarose gel electrophoresis.
Assay [2] has as its system KB. As to the kind of experiment: Cytotoxicity against human KB cells assessed as reduction in cell number after 3 days by crystal violet staining. It counts as functional. As to conditions: 72 h, read-out: ED50 (the source's name).
For assay [3], the target named is DNA topoisomerase 2-alpha (Homo sapiens) (UniProt P11388). As to the kind of experiment: Inhibition of DNA topoisomerase 2 in human KB cells assessed as enzyme-[methyl-3H]thymidine-labeled DNA complex formation at 10 uM after 1 hr by K-SDS precipitation assay. It counts as cell-based.
Chain of DNA topoisomerase 2-alpha (Homo sapiens) (P11388 whole entry): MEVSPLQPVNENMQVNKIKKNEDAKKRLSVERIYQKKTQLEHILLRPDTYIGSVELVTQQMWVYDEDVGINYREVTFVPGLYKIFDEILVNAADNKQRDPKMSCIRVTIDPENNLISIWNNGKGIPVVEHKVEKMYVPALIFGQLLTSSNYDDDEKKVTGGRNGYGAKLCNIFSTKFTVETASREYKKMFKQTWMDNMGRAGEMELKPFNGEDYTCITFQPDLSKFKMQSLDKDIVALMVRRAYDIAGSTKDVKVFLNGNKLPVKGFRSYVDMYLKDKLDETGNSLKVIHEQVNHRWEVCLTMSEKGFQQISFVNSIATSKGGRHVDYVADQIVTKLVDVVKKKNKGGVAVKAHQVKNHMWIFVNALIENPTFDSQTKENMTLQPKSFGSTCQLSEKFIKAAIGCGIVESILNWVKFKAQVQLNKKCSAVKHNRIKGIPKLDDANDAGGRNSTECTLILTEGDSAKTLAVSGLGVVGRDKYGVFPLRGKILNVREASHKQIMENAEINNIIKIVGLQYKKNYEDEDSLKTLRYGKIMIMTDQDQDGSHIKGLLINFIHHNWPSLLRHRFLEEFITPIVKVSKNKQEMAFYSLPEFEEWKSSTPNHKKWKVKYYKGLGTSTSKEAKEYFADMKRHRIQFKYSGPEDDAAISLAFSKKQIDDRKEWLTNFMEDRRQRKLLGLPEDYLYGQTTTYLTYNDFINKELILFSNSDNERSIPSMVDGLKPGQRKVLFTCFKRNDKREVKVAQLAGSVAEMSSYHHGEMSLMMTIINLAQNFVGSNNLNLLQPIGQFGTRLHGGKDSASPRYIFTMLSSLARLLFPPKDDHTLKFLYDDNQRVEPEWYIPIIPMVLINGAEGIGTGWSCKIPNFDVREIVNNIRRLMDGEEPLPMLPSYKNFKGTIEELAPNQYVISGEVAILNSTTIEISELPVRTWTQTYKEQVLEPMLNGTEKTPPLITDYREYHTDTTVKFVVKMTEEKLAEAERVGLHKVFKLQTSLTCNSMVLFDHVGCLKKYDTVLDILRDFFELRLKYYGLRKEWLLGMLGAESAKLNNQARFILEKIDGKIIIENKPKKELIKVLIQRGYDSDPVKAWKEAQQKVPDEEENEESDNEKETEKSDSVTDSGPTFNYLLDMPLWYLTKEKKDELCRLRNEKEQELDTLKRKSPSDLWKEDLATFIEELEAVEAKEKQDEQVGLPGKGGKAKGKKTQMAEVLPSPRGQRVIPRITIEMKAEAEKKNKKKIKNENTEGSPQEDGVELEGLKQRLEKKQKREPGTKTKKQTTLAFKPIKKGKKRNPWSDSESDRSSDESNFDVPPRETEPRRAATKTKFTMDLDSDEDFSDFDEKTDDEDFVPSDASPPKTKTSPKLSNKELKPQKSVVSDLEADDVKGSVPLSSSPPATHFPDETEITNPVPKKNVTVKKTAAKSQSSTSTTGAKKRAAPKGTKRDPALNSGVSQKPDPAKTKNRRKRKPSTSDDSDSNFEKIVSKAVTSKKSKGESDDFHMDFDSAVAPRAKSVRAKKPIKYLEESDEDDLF
Assay [4] shares this target. Kind of assay: Inhibition of human DNA topoisomerase 2 assessed as bacteriophage P4 DNA unknotting after 30 mins by agarose gel electrophoresis.
Assay [5] shares this target. As to the kind of experiment: Inhibition of DNA topoisomerase 2 in human KB cells assessed as enzyme-[methyl-3H]thymidine-labeled DNA complex formation at 5 uM after 1 hr by K-SDS precipitation assay. It counts as cell-based.
Assay [6] is described as follows: Inhibition of microtubule polymerization.

Values after ≈ are worked out from the molar mass of the structure shown. Active and inactive are the calls of the source. No cut-off for these calls is given here. Where only a bound is given, the exact number is not on record here.

Turning to `COCCN[C@@H]1c2cc3c(cc2[C@@H](c2cc(OC)c(O)c(OC)c2)[C@H]2C(=O)OC[C@@H]21)OCO3`, the inhibition in assay [1] worked out at 75%; in assay [3], 111%. Besides, the EC50 in assay [2] is more than 4 µg/mL.
The matching figures for `C=CCN[C@@H]1c2cc3c(cc2[C@@H](c2cc(OC)c(O)c(OC)c2)[C@H]2C(=O)OC[C@@H]21)OCO3`: 75%, 84.2% and 3.4 µg/mL (≈ 7.74 µM).
For `COc1cc([C@@H]2c3cc4c(cc3[C@H](N)[C@H]3COC(=O)[C@H]23)OCO4)cc(OC)c1O`, the inhibition is 25% in assay [1] and 8% in assay [3]. In assay [2], the EC50 came to 0.25 µg/mL (≈ 0.626 µM).
For `COc1cc([C@@H]2c3cc4c(cc3[C@@H](O[C@@H]3O[C@@H]5CO[C@@H](C)O[C@H]5[C@H](O)[C@H]3O)[C@H]3COC(=O)[C@H]23)OCO4)cc(OC)c1O` [ETOPOSIDE], the inhibition in assay [1] is more than 75%; in assay [3], 100%; in assay [5] it was 56.2%. Further, the ID50 in assay [4] stood at 50 µM. Besides, in assay [2], the EC50 was 0.16 µg/mL (≈ 0.272 µM).
`COc1cc([C@@H]2c3cc4c(cc3[C@H](NCCO)[C@H]3COC(=O)[C@H]23)OCO4)cc(OC)c1O`: the EC50 in assay [2] was more than 1 µg/mL. Moreover, the inhibition in assay [3] was determined as 0%.
Turning to `COc1cc([C@@H]2c3cc4c(cc3[C@H](O)[C@H]3COC(=O)[C@H]23)OCO4)cc(OC)c1OC`, in assay [6], the outcome was inactive.
For the molecule `COc1cc([C@@H]2c3cc4c(cc3[C@@H](O)[C@H]3COC(=O)[C@H]23)OCO4)cc(OC)c1O` [4'-DEMETHYLEPIPODOPHYLLOTOXIN], the results for the inhibition in assay [1] and in assay [3] were 50% and 42.2%, respectively. For the same molecule, in assay [2], the EC50 was determined as 0.34 µg/mL (≈ 0.849 µM).
Turning to `COc1cc([C@@H]2c3cc4c(cc3[C@@H](NCC(C)O)[C@H]3COC(=O)[C@H]23)OCO4)cc(OC)c1O` (stereo not given in full), the inhibition in assay [1] is more than 75%; in assay [5], 83.9%. The ID50 in assay [4] is 25 µM. Moreover, the EC50 in assay [2] was 3.6 µg/mL (≈ 7.87 µM).
As for `COc1cc([C@@H]2c3cc4c(cc3[C@H](O)[C@H]3COC(=O)[C@H]23)OCO4)cc(OC)c1O`, the results for the inhibition in assay [1] and in assay [3] were 25% and 3.3%, respectively. The EC50 in assay [2] came to 0.045 µg/mL (≈ 0.112 µM).
Regarding `CCCN[C@@H]1c2cc3c(cc2[C@@H](c2cc(OC)c(O)c(OC)c2)[C@H]2C(=O)OC[C@@H]21)OCO3`, the figures for the inhibition in assay [1] and in assay [3] were 50% and 69.7%, respectively. Moreover, in assay [2], the EC50 was less than 0.4 µg/mL.
`COc1cc([C@@H]2c3cc4c(cc3[C@@H](N)[C@H]3COC(=O)[C@H]23)OCO4)cc(OC)c1O`: the inhibition in assay [1] amounted to 50%; in assay [3], 36.4%. For the same molecule, the EC50 in assay [2] was 0.19 µg/mL (≈ 0.476 µM).
Consider `COc1cc([C@@H]2c3cc4c(cc3[C@@H](NCCCO)[C@H]3COC(=O)[C@H]23)OCO4)cc(OC)c1O`, for which the values for the inhibition in assay [1] and in assay [3] were 50% and 89.2%, respectively. Moreover, the EC50 in assay [2] amounted to 4 µg/mL (≈ 8.74 µM).
Turning to `COc1cc([C@@H]2c3cc4c(cc3[C@@H](NCCO)[C@H]3COC(=O)[C@H]23)OCO4)cc(OC)c1O`, the inhibition was more than 75% in assay [1], 121% in assay [3] and 70.1% in assay [5]. Further, in assay [4], the ID50 worked out at 50 µM. For the same molecule, the EC50 in assay [2] turned out to be 1.6 µg/mL (≈ 3.61 µM).
In the case of `COc1cc([C@@H]2c3cc4c(cc3[C@@H](NC(C)CO)[C@H]3COC(=O)[C@H]23)OCO4)cc(OC)c1O` (stereo not given in full), the inhibition in assay [1] was more than 75%; in assay [5] it was 89.3%. In assay [4], the ID50 came out at 25 µM. Moreover, the EC50 in assay [2] worked out at 2.3 µg/mL (≈ 5.03 µM).
